Series [1] concerns the target PARP2 (Homo sapiens (Human), UniProt Q9UGN5). Kind of series: PARP fluorescence anisotropy binding assay, PARP2. The procedure: Recombinant full length PARP2 protein was diluted to 6 nM with 50 mM Tris pH 8, 0.001% Triton X100, 10 mM MgCl2, 150 mM NaCl and incubated for four hours with an equivalent volume of 2 nM fluorescent probe diluted with 50 mM Tris pH 8, 0.001% Triton X100, 10 mM MgCl2, 150 mM NaCl. The final DMSO concentration of the probe was kept below 1% (v/v).
Fluorescence anisotropy of the probe when bound to the proteins was measured using a BMG Pherastar FSX® in the presence of test compounds or solvent control and the effect on anisotropy determined. % inhibition values for different test compound concentrations were calculated and fitted to a four parameter logistic plot in order to determine the IC50 value.

The nature of series [2]: Determination of Kpuu in rat. It counts as in vivo, Han Wistar rats. The note with it: intravenous infusion; for Kp uu at 4 h: Han Wistar, rat, brain and plasma (unbound brain-to-plasma ratio), 2 µmols/kg/h; for Rat Kpuu: 4 h, brain/plasma unbound. The procedure: The fraction unbound was determined using the RED Device.
Compounds were prepared as 10 mM solutions in DMSO. […] If less than 9 test compounds were included then the addition volume of blank DMSO was added to make up volume to 40 uL.
Frozen plasma was thawed in a water bath at 37° C. Plasma was then centrifuged for 2 minutes at 4,000 rpm to remove clots and collect supernatant into a fresh tube. The pH of the plasma was checked and only used if within the range of pH 7 to pH 8. 3 μL of the working solution of each cassette was added to 597 μL of blank plasma and vortexed for 5 minutes at 1000 rpm. The final percent volume of organic solvent is 0.5% and the final concentration for test compound was 5 μM. Immediately transfer 50 μL of the spiked plasma suspension to a 96-well plate to act as T=0 control sample. The samples are treated the same as the samples after incubation. The remaining plasma is kept at 37° C. prior to starting the dialysis.
Place inserts open end up into the wells of the base plate. Add 300 μL of spiked plasma sample into the sample chamber, indicated by the red ring. Add 500 μL of phosphate buffer (pH 7.4) to the buffer chamber. Cover the unit with gas permeable lid and incubate for 18 hours at 37° C. at 300 rpm with 5% CO2 on an orbital shaker in the CO2 incubator. At the end of incubation, remove lid and pipette 50 μL of post-dialysis samples from both buffer and plasma chambers into separated 96-well plate for analysis, respectively.
Samples were matrix matched by adding 50 μL of blank rat plasma to the buffer samples and an equal volume of PBS to the collected plasma samples and vortexed to mix. 400 μL of acetonitrile containing an appropriate internal standard (IS) was added to precipitate protein and release compound and mixed by vortexing the plate for 10 minutes followed by centrifugation for 30 minutes at 4,000 rpm. 250 μL of the supernatant was transferred to new 96-well plates and centrifuged again (4,000 rpm, 30 minutes). 100 μL of the supernatant was then transferred to new 96-well plates and mixed with 100 μL of distilled water to each sample by vortex for 5 minutes at 1,000 rpm. Samples were analysed by LC-MS/MS and drug concentrations were determined vs a calibration curve produced from spiked blank plasma with a typical range of 1-7500 nM.
The % unbound was determined as % Unbound=(Conc. buffer chamber/Conc. plasma chamber)×100%. Fraction unbound=% unbound/100.
The principle for the method for the determination of volume unbound in brain slices has previously been published (Development of a High-Throughput Brain Slice Method for Studying Drug Distribution in the Central Nervous System; Fridén et al; Drug Metabolism and Disposition, 2009, 37 (6) 1226-1233). In brief:
Compound stock solutions were prepared in DMSO at the concentration of 10 mM. […] If less than 9 test compounds were included, then blank DMSO was added to make up volume to 40 uL. On the day of the experiment 4 ul was diluted in 40 mL ECF buffer to give a 100 nM solution of each test compounds which was then pre-warmed to 37° C. before the start of the incubation.
To prepare brain slices, rats weighing approximately 300 g were terminally anesthetised with isoflurane by inhalation, the brain carefully removed and immersed in ice-cold oxygenated ECF buffer. The rat brain was transferred to a dish containing ice-cold, 02 supplied ECF buffer and trimmed with razor before gluing to the tray of a microslicer with the brain placed with the back section surface down centrally on the tray. Ice cold ECF buffer was added to harden the glue and wet the brain. The tray was placed in the microslicer and using a suitable cutting speed, 100-400 μm were cut slices until the striatum area appeared. Four to six for each brain, 300 μm thick, coronal slices of striatum areas were cut and placed in ice cold 02 supplied buffer until incubation. Six slices were transferred to the incubation tray containing 40 mL pre warmed (37° C.) cassette mixture. […]

Series [3] addresses PARP5a (Homo sapiens (Human), UniProt O95271). The experiment in a line: PARP fluorescence anisotropy binding assay, PARP5a. In general terms: Fluorescence polarisation rises when a labelled molecule tumbles more slowly, as on binding a larger partner.
Protocol: Recombinant PARP5a binding domain was diluted to 160 nM with 50 mM Tris pH 8, 0.001% Triton X100, 10 mM MgCl2, 150 mM NaCl and incubated for four hours with an equivalent volume of 6 nM fluorescent probe diluted with 50 mM Tris pH 8, 0.001% Triton X100, 10 mM MgCl2, 150 mM NaCl. The final DMSO concentration of the probe was kept below 1% (v/v).
Series [4] concerns MDR1 and BCRP. Kind of series: In vitro human transporter efflux (MDCK-MDR1-BCRP). The note with it: human, pH 7.4.
Protocol: MDCKII cells expressing MDR1 and BCRP were seeded onto polyethylene membranes in 96-well Transwell insert systems at a density to form a confluent cell monolayer. […] The final percent volume of the organic solvent was less than 1%. Permeation of the test compounds from A to B direction and from B to A direction was determined over a 90-min incubation at 37° C. and 5% CO2 with a relative humidity of 95%. At the end of the incubation, samples from the apical and basolateral side were taken and then precipitated with cold acetonitrile containing internal standard. After centrifugation at 4000 rpm, the supernatant was diluted with 0.1% formic acid aqueous solution and quantified by LC-MS/MS. The integrity of the cell monolayers was confirmed by using the marker Lucifer yellow.
The permeability coefficient (1×10-6 cm/s) was calculated using the following equation
(1) The Efflux Ratio was Calculated Using the Following Equation
Efflux ratio=Papp(B to A)/Papp(A to B)
(2) where dCr/dt is the cumulative concentration of the compound in the receiver chamber as a function of time (in μM/s); Vr is the solution volume in the receiver chamber (0.1 ml on the apical side and 0.3 ml on the basolateral side); A is the surface area for the transport, that is, 0.11 cm2 for the area of the monolayer; and C0 is the initial concentration in the donor chamber (in μM).
For series [5], the target named is PARP3 (Homo sapiens (Human), UniProt Q9Y6F1). The experiment in a line: PARP fluorescence anisotropy binding assay, PARP3.
Protocol: Recombinant full length PARP3 protein was diluted to 100 nM with 50 mM Tris pH 8, 0.001% Triton X100, 10 mM MgCl2, 150 mM NaCl and incubated for four hours with an equivalent volume of 6 nM fluorescent probe diluted with 50 mM Tris pH 8, 0.001% Triton X100, 10 mM MgCl2, 150 mM NaCl. The final DMSO concentration of the probe was kept below 1% (v/v).
Series [6] addresses PARP1 (Homo sapiens (Human), UniProt P09874). The experiment in a line: PARP fluorescence anisotropy binding assay, PARP1.
Protocol: Recombinant full length 6HIS tagged PARP1 protein was diluted to 6 nM with 50 mM Tris pH 8, 0.001% Triton X100, 10 mM MgCl2, 150 mM NaCl and incubated for four hours with an equivalent volume of 2 nM fluorescent probe diluted with 50 mM Tris pH 8, 0.001% Triton X100, 10 mM MgCl2, 150 mM NaCl. The final DMSO concentration of the probe was kept below 1% (v/v).
The target of series [7] is PARP6 (Homo sapiens (Human), UniProt Q2NL67). Kind of series: PARP fluorescence anisotropy binding assay, PARP6. How it is done:
Recombinant full length GST tagged PARP6 protein was diluted to 160 nM with 50 mM Tris pH 8, 0.001% Triton X100, 10 mM MgCl2, 150 mM NaCl and incubated for four hours with an equivalent volume of 6 nM fluorescent probe diluted with 50 mM Tris pH 8, 0.001% Triton X100, 10 mM MgCI2, 150 mM NaCl. The final DMSO concentration of the probe was kept below 1% (v/v).
Fluorescence anisotropy of the probe when bound to the proteins was measured using a BMG Pherastar FSX® in the presence of test compounds or solvent control and the effect on anisotropy determined. % inhibition values for different test compound concentrations were calculated and fitted to a four parameter logistic plot in order to determine the IC50 value. Where necessary, the compound K, can be determined from the IC50 value using a Munson Rodbard equation defined in Anal Biochem. 1980 Sep. 1; 107(1):220-39 and is based on the known KD of the probe binding to the relevant PARP protein

The target in series [8] is hERG (Homo sapiens (Human), UniProt Q12809). Kind of series: hERG IC50. (The hERG channel carries a current that helps repolarise heart muscle cells.)
Series [9] has as its system BRCA2 (−/−) DLD1 cells. The experiment in a line: PARP proliferation assay (7 day compound dosing), BRCA2 (−/−) DLD1. It counts as cell-based. The following applies: Homo sapiens, DLD-1, 168 h, read-out: BRCA2 −/− DLD-1 prolif. 7 d IC50. The procedure:
DLD1 and BRCA2 (−/−) DLD1 cells were harvested to a density of 5000 cells/ml and 2.5E4 cells/ml respectively in complete media, 40 μL/well seeded into 384-well plates (Greiner, Kremsmunster, Austria; 781090) using a Multidrop Combi then incubated at 37° C., 5% CO2 overnight. Next day (Day 1) using a Multidrop Combi add sytox green (5ul, 2 uM) and saponin (10 ul, 0.25% stock) to a day 0 plate, seal the plate using a black adhesive lid and incubate for >3 h at it. Cells were imaged using Cell Insight (Thermo Fisher) fitted with a 4x objective. Test compounds are added using an Echo 555 and placed in incubator maintained at 37° C., 5% CO2 and incubated for 7 days. On Day 8 add sytox green (5ul, 2 uM) and then saponin (10 ul, 0.25% stock) to plates, seal the plate using a black adhesive lid and incubate for >3 h at it. Read all cells on the Cell Insight with 4× Objective. The rate of proliferation is determined in Genedata by assessing the total cell number output from the Cell Insight for Day 0 and Day 8 plates.

Series [10] deals with U87MG xenograft. It counts as in vivo, female Nude mice. How it is done: U87MG cells (2.5 million in serum-free MEM medium) were implanted subcutaneously (SC) into the dorsal flank of female Nude mice (weight greater than 18 g). Tumours were measured (length x width) two times weekly by bilateral Vernier calliper measurements and tumour volume was calculated using elliptical formula (π/6×width×width×length). Animal bodyweight and tumour condition were monitored throughout the study. Mice were randomised into treatment groups when mean tumour volume reached approximately 0.2 cm^3.
Animals were treated orally (PO) from the day after the randomisation. Control animals were treated with vehicle (water/methane sulfonic acid (MSA) pH3-3.2) once daily for 10 days (QD×10). PARP inhibitor in water/MSA pH3-3.2 was dosed in the monotherapy and combination groups at 3 mg/kg QD×10 or QD×33, respectively. Temozolomide (TMZ) in OraPlus Perrigo was dosed in the monotherapy group at 25 mg/kg QD on days 1-5 and 29-33, and in monotherapy and combination group at 6.25 mg/kg QD on days 1-5 and 29-33.
Tumour growth inhibition from start of treatment was assessed by comparison of the mean change in tumour volume (TV) of the control and treated groups and represented as percent tumour growth inhibition (TGI, when tumour volume (TV) >starting TV) or tumour regression (reg, when TV<starting TV). Statistical significance was evaluated using a one-tailed t test. Statistical significance is indicated as follows: *p:0.05, **p:0.01, ***p:0.001.

Where [11] appears, read: TMZ 6.25 mg/kg QD on days 1-5 and 29-33, PO.
Setting [12] is: TMZ 25 mg/kg QD on days 1-5 and 29-33, PO.

One may read the efflux ratio as the permeability from basolateral to apical divided by that in the opposite direction, in the common usage.

Where two headings read alike, the source gives them in different places.

PARP5a, sequence (O95271 1112-1317): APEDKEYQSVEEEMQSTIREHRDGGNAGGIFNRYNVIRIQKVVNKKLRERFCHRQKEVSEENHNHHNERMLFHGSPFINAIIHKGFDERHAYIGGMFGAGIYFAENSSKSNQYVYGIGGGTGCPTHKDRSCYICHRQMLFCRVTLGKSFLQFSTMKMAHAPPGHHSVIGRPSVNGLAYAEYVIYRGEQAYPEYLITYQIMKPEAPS
PARP6, sequence (Q2NL67 whole entry): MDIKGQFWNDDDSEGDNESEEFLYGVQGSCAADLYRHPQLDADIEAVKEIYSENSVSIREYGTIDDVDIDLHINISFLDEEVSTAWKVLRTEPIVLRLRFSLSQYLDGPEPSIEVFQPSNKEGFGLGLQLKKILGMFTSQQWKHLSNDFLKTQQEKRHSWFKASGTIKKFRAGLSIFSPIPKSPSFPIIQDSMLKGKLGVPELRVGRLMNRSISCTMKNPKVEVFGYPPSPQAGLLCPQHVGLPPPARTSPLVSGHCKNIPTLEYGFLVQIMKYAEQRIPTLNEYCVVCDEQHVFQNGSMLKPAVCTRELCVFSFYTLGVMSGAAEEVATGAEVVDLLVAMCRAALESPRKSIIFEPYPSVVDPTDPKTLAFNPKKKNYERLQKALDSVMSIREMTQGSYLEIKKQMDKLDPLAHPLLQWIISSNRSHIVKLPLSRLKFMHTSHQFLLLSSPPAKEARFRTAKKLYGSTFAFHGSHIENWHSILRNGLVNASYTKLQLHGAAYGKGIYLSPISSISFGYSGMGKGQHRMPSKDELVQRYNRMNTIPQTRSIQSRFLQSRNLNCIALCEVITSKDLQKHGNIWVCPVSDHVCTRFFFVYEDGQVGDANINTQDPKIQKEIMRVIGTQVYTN
PARP2, sequence (Q9UGN5 whole entry): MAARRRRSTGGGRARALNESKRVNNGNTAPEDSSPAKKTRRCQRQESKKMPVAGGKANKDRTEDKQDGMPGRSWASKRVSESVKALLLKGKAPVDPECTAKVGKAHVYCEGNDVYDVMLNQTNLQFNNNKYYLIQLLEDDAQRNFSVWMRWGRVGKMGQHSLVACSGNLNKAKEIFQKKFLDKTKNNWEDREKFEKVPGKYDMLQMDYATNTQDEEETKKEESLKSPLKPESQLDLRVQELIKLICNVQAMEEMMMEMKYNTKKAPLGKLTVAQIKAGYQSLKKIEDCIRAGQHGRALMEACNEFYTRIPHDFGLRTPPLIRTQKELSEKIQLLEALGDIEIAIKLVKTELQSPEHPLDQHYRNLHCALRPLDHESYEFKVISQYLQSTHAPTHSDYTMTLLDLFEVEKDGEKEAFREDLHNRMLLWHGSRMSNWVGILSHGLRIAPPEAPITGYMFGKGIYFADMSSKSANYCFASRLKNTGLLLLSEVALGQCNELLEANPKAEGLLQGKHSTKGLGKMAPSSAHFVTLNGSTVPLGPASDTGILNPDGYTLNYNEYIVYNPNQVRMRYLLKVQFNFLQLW
PARP1, sequence (P09874 whole entry): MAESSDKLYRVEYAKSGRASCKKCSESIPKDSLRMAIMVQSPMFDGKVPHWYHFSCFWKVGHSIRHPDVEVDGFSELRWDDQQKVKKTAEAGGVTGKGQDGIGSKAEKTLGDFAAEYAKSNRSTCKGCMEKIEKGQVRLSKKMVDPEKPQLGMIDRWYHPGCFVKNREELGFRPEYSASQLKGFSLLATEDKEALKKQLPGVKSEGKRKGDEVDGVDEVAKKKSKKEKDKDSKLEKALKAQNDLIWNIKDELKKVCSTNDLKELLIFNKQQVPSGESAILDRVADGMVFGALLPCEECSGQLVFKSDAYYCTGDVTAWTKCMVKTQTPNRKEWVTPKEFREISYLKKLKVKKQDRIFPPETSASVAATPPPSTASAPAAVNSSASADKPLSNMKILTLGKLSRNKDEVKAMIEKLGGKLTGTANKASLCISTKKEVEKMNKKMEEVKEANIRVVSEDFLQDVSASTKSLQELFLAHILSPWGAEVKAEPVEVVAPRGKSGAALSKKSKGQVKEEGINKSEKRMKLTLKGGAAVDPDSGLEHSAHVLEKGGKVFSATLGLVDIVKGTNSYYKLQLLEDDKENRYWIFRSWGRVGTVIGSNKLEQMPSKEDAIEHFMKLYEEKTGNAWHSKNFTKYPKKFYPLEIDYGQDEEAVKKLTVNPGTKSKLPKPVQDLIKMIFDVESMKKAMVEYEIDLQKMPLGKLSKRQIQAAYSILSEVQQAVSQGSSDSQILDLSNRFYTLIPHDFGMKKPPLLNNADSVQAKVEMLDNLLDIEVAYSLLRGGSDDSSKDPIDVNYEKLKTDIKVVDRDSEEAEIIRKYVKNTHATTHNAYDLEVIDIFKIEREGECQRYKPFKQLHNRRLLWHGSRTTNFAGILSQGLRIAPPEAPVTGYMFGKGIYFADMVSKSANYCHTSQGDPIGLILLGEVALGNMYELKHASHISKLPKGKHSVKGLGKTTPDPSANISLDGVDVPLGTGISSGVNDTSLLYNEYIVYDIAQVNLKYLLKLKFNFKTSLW
PARP3, sequence (Q9Y6F1 whole entry): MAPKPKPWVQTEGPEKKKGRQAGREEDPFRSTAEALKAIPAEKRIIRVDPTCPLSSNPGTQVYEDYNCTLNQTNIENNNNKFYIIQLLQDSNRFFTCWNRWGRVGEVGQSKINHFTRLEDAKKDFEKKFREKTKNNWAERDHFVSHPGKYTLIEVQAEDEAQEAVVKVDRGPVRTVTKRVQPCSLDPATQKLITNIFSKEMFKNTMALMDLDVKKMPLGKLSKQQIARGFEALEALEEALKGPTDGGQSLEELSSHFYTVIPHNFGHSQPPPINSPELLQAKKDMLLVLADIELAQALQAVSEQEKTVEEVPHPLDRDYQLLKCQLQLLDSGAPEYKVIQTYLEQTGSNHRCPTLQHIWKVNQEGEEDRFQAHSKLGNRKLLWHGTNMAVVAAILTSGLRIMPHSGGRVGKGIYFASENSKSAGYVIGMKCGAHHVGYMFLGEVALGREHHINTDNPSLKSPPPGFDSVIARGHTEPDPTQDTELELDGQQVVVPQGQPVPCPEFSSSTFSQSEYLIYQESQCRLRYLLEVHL
hERG, sequence (Q12809 whole entry): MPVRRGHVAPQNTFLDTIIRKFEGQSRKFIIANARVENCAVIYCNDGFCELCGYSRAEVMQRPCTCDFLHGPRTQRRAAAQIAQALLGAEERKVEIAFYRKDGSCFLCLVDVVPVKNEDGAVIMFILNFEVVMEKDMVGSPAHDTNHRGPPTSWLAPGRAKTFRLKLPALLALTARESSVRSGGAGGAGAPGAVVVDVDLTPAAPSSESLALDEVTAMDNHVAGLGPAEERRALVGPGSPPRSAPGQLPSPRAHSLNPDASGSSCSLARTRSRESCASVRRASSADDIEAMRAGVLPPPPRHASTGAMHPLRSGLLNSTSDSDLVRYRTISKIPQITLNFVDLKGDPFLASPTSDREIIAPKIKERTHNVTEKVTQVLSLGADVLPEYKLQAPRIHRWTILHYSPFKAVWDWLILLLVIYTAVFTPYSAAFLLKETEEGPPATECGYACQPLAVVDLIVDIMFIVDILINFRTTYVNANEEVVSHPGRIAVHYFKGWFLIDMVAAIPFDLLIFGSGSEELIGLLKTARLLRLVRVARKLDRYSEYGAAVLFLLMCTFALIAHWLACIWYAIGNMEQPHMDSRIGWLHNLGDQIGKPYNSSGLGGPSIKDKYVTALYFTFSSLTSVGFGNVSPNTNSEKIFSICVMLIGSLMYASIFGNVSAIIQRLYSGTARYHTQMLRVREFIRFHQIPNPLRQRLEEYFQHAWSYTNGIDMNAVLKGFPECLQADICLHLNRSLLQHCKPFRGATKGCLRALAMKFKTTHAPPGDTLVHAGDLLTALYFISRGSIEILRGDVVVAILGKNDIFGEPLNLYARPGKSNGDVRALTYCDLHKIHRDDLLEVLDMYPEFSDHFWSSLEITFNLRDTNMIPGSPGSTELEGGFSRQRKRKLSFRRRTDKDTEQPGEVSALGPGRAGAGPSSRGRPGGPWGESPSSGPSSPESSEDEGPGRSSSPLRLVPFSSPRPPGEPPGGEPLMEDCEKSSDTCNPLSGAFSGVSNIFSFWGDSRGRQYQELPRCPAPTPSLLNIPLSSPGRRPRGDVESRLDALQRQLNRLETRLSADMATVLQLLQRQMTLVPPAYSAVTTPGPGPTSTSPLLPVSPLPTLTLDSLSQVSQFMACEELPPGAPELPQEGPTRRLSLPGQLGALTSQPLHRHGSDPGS

On to `CNC(=O)c1ccc(N2CCN(Cc3ccc4nc(C)c(=O)[nH]c4c3C)CC2)c(F)n1` [Example 1, 5-[4-[(2,5-dimethyl-3-oxo-4H-quinoxalin-6-yl)methyl]piperazin-1-yl]-6-fluoro-N-methyl-pyridine-2-carboxamide], for which the IC50 in [1] was greater than 70 µM; in series [3], greater than 100 µM; in [5], greater than 100 µM; in [6], 0.004 µM; in series [7], greater than 100 µM. In addition, the Kp uu at 4 h in [2] was found to be 0.07. In addition, the efflux ratio at 90 min in series [4] turned out to be 0.7.
Regarding `CNC(=O)c1ccc(N2CCN(Cc3ccc4nc(C)c(=O)[nH]c4c3C)CC2)c(C)n1` [Example 4, 5-[4-[(2,5-dimethyl-3-oxo-4H-quinoxalin-6-yl)methyl]piperazin-1-yl]-N,6-dimethyl-pyridine-2-carboxamide], the IC50 is greater than 83 µM in [1]; greater than 100 µM in series [3]; 78 µM in [5]; 0.005 µM in series [6]; greater than 100 µM in series [7]. Besides, the Kp uu at 4 h in series [2] came to 0.13. Also, the efflux ratio at 90 min in [4] was determined as 0.8.
Turning to `CNC(=O)c1ccc(N2CCN(Cc3ccc4nc(C)c(=O)[nH]c4c3Cl)CC2)c(C)n1` [Example 18, 5-[4-[(5-chloro-2-methyl-3-oxo-4H-quinoxalin-6-yl)methyl]piperazin-1-yl]-N,6-dimethyl-pyridine-2-carboxamide], the IC50 in series [8] was found to be 14 µM; in series [6] it was 0.005 µM.
As for `CCc1nc2ccc(CN3CCN(c4ccc(C(=O)NC)nc4C)CC3)c(F)c2[nH]c1=O` [Example 23, 5-[4-[(2-ethyl-5-fluoro-3-oxo-4H-quinoxalin-6-yl)methyl]piperazin-1-yl]-N,6-dimethyl-pyridine-2-carboxamide], the IC50 is greater than 67 µM in [1]; greater than 100 µM in series [3]; greater than 100 µM in series [5]; 0.005 µM in series [6]; greater than 100 µM in series [7]. Also, the Kp uu at 4 h in series [2] was found to be 0.62. Further, in series [4], the efflux ratio at 90 min turned out to be 0.8.
On to `CCc1nc2ccc(CN3CCN(c4ccc(C(=O)NC)nc4F)CC3)c(F)c2[nH]c1=O` [Example 27, 5-[4-[(2-ethyl-5-fluoro-3-oxo-4H-quinoxalin-6-yl)methyl]piperazin-1-yl]-6-fluoro-N-methyl-pyridine-2-carboxamide], for which the “Rat Kpuu” value in [2] is 0.43. For the same compound, the IC50 in [3], in [5] and in [7] was greater than 100 µM each time.
As to `CCc1nc2ccc(CN3CCN(c4ccc(C(=O)NC)nc4)CC3)c(F)c2[nH]c1=O` [Example 29, 5-[4-[(2-ethyl-5-fluoro-3-oxo-4H-quinoxalin-6-yl)methyl]piperazin-1-yl]-N-methyl-pyridine-2-carboxamide], the IC50 is greater than 100 µM in series [1]; greater than 100 µM in [3]; greater than 100 µM in series [5]; 0.015 µM in series [6]; greater than 100 µM in series [7]. In addition, in [2], the Kp uu at 4 h stood at 0.33. For the same compound, in series [4], the efflux ratio at 90 min was 0.7.
For the compound `CNC(=O)c1ccc(N2CCN(Cc3ccc4nc(C)c(=O)[nH]c4c3F)CC2)c(C)n1` [Example 31, 5-[4-[(5-fluoro-2-methyl-3-oxo-4H-quinoxalin-6-yl)methyl]piperazin-1-yl]-N,6-dimethyl-pyridine-2-carboxamide], the IC50 is greater than 100 µM in series [1]; greater than 100 µM in series [3]; greater than 100 µM in [5]; 0.007 µM in series [6]; 0.007 µM in [9]; greater than 100 µM in [7]. The “Rat Kpuu” value in series [2] was 0.19. Moreover, in [4], the efflux ratio at 90 min came to 1.6.
As to `Cn1nnc2c(C(N)=O)ncn2c1=O` [TMZ, Temozolomide], in series [10] (setting [11]), the tumour regression was determined as 28% and the tumours regressed is 2/8. Besides, in [10] (setting [12]), the tumour regression came to 92% and the tumours regressed is listed as 7/8.

Values taken from US20250082630A1, “METHODS OF TREATING BRAIN TUMOURS AND NEUROBLASTOMAS” (AstraZeneca AB, priority 2021, published 2025).
